Laboratory results taken from US11603387B2, “SOCS mimetics for the treatment of diseases” (UNIVERSITY OF FLORIDA RESEARCH FOUNDATION, INC., priority 2014, dated 2023).

Tested on: IFNγ
Test: IFNγ expression by qPCR and ELISA under Th17 inducing conditions
Assay type: cell-based, mouse
Conditions: SOCS1-KIR peptide (20 μM)
Description: FIGS. 5A-5D. […] (FIGS. 5A and 5B) SOCS1^+/+ or SOCS1^+/− CD4^+CD25^− T cells were stimulated with αCD3 antibodies alone or with αCD3+SOCS1-KIR peptide (20 μM) for 72 h. (FIG. 5A) CD25 expressing cells were assessed by flow cytometry. Results are representative of 4 independent experiments. (FIG. 5B) Proliferation was assessed by CFSE labeling and flow cytometry, cell counts, and ^3[H] thymidine incorporation. n=4. (FIGS. 5C and 5D) SOCS1^+/+ or SOCS1^+/− CD4^+CD25^− T cells were placed under Th17 inducing conditions in the absence or presence of SOCS1-KIR peptide (20 μM) (FIG. 5C) IFNγ expression, relative to β-actin., was assessed by qPCR (left) and ELISA (right) (n=4). (FIG. 5D) pSTAT1 and STAT1 protein expressions were assessed by western blotting. Results are representative of 4 independent experiments. Statistical comparisons were performed using Mann-Whitney U test. (*P<0.05). iTh17=Th17 inducing conditions, WT=SOCS1^+/+, and HT=SOCS1^+/−.
CD4^+CD25^− T lymphocytes (1×10^5/well) were cultured in triplicate at 37° C. (5% CO2) in RPMI 1640 (Cellgro 10-040-CV) containing 10% FBS (INVITROGEN™ GIBCO®) 1% antibiotic/antimycotic (Herndon, Va.), and 50 μM β-ME (MP Biomedicals, Solon, Ohio). […] Cells were incubated for 72 hours and assessed for Treg differentiation by ICS for Foxp3. […] Cells were collected after 5 days and assessed for activation and Th17 differentiation. […]

For “DTHFRTFRSHSDYRRI (SOCS1-KIR peptide) [SOCS1 mimetic peptide corresponding to the KIR region of SOCS1]”, the “Reduction in IFNγ protein production” value (ELISA) was 2 fold and the “Reduction in IFNγ mRNA expression” value (qPCR relative to β-actin) was 2 fold.
